Here are results for 1 compound from ChEMBL document CHEMBL5241138, “Inhibitors of Interleukin 4 Induced Protein 1 (IL4I1) as Potential Treatment for Cancer” (ACS Med Chem Lett, 2023).

This experiment has as its target T1, L-amino-acid oxidase (Homo sapiens, UniProt Q96RQ9).
T1 sequence (Q96RQ9 whole entry): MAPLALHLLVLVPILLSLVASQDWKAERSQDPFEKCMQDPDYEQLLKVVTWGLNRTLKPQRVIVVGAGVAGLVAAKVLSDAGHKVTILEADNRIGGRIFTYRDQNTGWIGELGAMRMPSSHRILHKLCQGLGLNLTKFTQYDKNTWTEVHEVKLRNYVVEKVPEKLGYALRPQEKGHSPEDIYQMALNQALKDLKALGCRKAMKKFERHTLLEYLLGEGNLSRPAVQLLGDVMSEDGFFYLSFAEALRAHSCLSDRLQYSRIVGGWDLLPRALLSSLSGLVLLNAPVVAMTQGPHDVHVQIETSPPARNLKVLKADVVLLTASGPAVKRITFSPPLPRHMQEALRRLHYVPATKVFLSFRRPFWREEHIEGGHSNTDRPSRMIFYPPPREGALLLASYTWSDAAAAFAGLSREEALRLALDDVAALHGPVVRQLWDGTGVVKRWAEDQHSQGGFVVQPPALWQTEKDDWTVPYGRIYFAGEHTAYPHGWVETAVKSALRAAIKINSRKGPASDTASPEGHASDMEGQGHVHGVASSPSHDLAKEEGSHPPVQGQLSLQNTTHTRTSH
Nature of the experiment: Inhibition of C-terminal 6-His tagged recombinant human IL4I1 (Gln22 to His567 residues) expressed in CHO cells using Phe/Tyr/Trp as substrate assessed as inhibition of H2O2 production measured after 240 mins by Amplex red and horseradish peroxidase based fluorescence assay.

Usually EC50 stands for the midpoint of the concentration-response curve.

In the case of `O=C1C(=O)N(C2C[C@@H]3C[C@@H]3C2)CCN1Cc1ccc(-c2nccs2)nn1` (stereo partly specified), the 50% effective concentration (EC50) came to 23 nM.
